Entries after “also recorded” stand apart in the source; their conditions may differ. Where two headings read alike, the source gives them in different places.
Key:
[1] = tested on: human iPS-derived cardiac progenitor cells (CPCs); test: CPC proliferation assay (nuclear count); type: cell-based; details: primary screen, relative to basic FGF 100 ng/mL
Experimental: The CPC proliferation assay including image and data analysis was performed as previously described.14 Cardiac progenitor marker antibodies are listed in Table S3.
A library of 10 000 compounds was screened in singlicate at three concentrations (0.1, 1.0, and 10 μM) in the CPC proliferation assay. Each plate contained neutral controls, 0.1% DMSO and maximum controls, 100 ng/mL human basic fibroblast growth factor (FGF; Invitrogen, ThermoFisher Scientific, Waltham, Massachusetts). The data were analyzed using the Genedata Screener software (Genedata, Inc, Basel, Switzerland). […] Results were calculated using the following calculation method: compound % effect = 100 × [(X − min)/(max − min)], where X represents a normalized value for the compound based on the neutral and maximum controls.
The library was screened in three‐point concentration response (CR) at 0.1, 1.0, and 10 μM measuring proliferation of human induced pluripotent stem (iPS)‐derived CPCs with nuclear count, as measured by Hoechst staining, as the primary endpoint.

[2] = biological target: T1, RARA (alpha) ligand binding domain (Homo sapiens, UniProt P10276); test: RAR LBD-SRC1-2 coactivator peptide recruitment assay, agonist format, RARA; type: biochemical
T1 sequence (P10276 183-417 limits assumed): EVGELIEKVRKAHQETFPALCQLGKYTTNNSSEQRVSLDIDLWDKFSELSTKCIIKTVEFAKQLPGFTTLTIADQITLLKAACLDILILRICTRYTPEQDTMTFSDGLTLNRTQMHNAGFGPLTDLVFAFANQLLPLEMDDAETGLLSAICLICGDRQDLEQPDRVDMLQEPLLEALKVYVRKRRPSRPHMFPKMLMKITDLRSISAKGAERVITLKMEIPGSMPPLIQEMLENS
Experimental: RAR ligand binding domain (LBD)‐SRC1‐2 coactivator peptide (NCOA1_677‐700 biotinylated) recruitment assays were established for the three RAR isotypes RARA (alpha), RARB (beta), and RARG (gamma) to determine relative potencies. […] A total of 0.4 μL of a fixed concentration range of test ligands dissolved in dimethyl sulphoxide (DMSO) was added to assay plates using an acoustic liquid dispenser. […] The raw data were transformed to % effect using the equation: compound % effect = 100 × [(X − min)/(max − min)], where X represents the effect in the presence of test compound and max and min are the effects in presence of the maximum and minimum controls, respectively.
The data were plotted to generate concentration‐response profiles and the concentration‐response curves were fit to the data using the four‐parameter logistic smart fit method in the Genedata Screener software (Genedata, Inc).

[3] = tested on: HuES6 hPSC-derived cardiac progenitors; test: HuES6-derived cardiac progenitors replated on day 5: cell number, RT-qPCR, immunocytochemistry; type: cell-based, human; details: for effect on cell proliferation / cell numbers, in words: 1.0 μM, day-5 replated progenitors, 4 days of exposure
Experimental: Insulin and signaling agonists were omitted after 1 day. On days 2‐3, the nascent mesodermal cells were specified to the cardiac lineage using 0.2 μM C‐59 (R&D Tocris) supplementation. Culture medium was replaced daily.
Basal cardiac progenitor medium was composed of DMEM/F12 (ThermoFisher Scientific), insulin/transferrin/selenium supplement, 0.1% human serum albumin (Biological Industries Inc, Cromwell, Connecticut), 1× chemically defined lipids (ThermoFisher Scientific), and antibiotics. RAR agonists (1 μM) were added from the day of passaging the cells. Samples were harvested and monitored after 4 days of treatment.
Cell numbers per well were quantified following single‐cell dissociation with Accutase and using standard Neubauer counting chambers. RT‐qPCR and immunocytochemistry were performed according to standard procedures. RPL37A served as housekeeping gene for normalization.

[4] = tested on: human iPS-derived cardiac progenitor cells (CPCs); test: CPC proliferation assay (nuclear count); type: cell-based
human aortic SMCs = tested on: human aortic SMCs; parameters: method as in PMID 24424466; details: cited from earlier work
murine CFs = tested on: murine CFs; parameters: method as in PMID 24424466; details: cited from earlier work
[5] = tested on: human umbilical vein endothelial cells (HUVECs); parameters: method as in PMID 24424466; details: cited from earlier work
[6] = tested on: human cardiac fibroblasts (CFs); test: CF proliferation assay (nuclear count)
Experimental: To ensure that these molecules were not general proliferators of all cardiac cells, they were also tested in a human CF proliferation assay31 using nuclear count as the endpoint.

CC1=C(/C=C/C(C)=C/C=C/C(C)=C/C(=O)O)C(C)(C)CCC1 [ATRA, all‐trans retinoic acid]
% Effect-normalised cell count ([1]; Log Concentration M -5 (10 μM)): 59%
% Effect-normalised cell count ([1]; Log Concentration M -6 (1.0 μM)): 14%
% Effect-normalised cell count ([1]; Log Concentration M -7 (0.1 μM)): 14%
top effect (% of maximum control) [2]: 103%
terminal cardiac differentiation, in words ([3]; 1 μM, day-5 replated cells, 4 days): did not acquire a beating phenotype; also recorded: pronounced inhibition of terminal cardiac differentiation
expression of cardiac progenitor markers vs untreated ([3]; 1 μM, day-5 replated cells, 4 days, with the exception of ISL1): enhanced the expression of cardiac progenitor markers
effect on cell proliferation / cell numbers, in words [3]: strong positive effects on cell proliferation
effect on cell proliferation / cell numbers, in words ([3]; listed as RA): increase in cell numbers
EC50 ([4]; 10-point CR, variable between occasions, read-out: EC50 variation between occasions, lower end): 50 nM
EC50 ([4]; 10-point CR, variable between occasions, read-out: EC50 variation between occasions, upper end): > 10000 nM
EC50 ([4]; 10-point concentration response, read-out: EC50, CPC proliferation): 56 nM
EC50 ([4]; iPSC-derived CPC proliferation, 10-point concentration response, read-out: CPC pEC50 (converted)): 50.1 nM
proliferation of human aortic SMCs (human aortic SMCs): inhibited the proliferation
proliferation of murine CFs (murine CFs): inhibited the proliferation
proliferation of HUVECs [5]: promoted the proliferation
CF proliferation, result in words [6]: inactive
